Reference: US20140051735A1, “USE OF N-PHENYLETHYLPYRAZOLE CARBOXAMIDE DERIVATIVES OR SALTS THEREOF FOR CONTROLLING POWDERY MILDEW PRIMARY INFECTIONS” (BAYER INTELLECTUAL PROPERTY GMBH, priority 2010, published 2014)

Legend:
powdery mildew species = conditions: on different crops; cited from earlier work
[1] = tested on: powdery mildew primary infections; assay: controlling powdery mildew primary infections in perennial crops after application prior to the end of the previous vegetative cycle; type: in vivo; conditions: in the year of the application and also in the year after

SMILES	efficacy against powdery mildew species (powdery mildew species)	infection of new growing shoots and leaves [1]	number of early infected shoots [1]
O=C(NCCc1ncc(C(F)(F)F)cc1Cl)c1ccccc1C(F)(F)F [fluopyram]	high level of efficacy		
COC(c1ccc(Cl)cc1Cl)C(C)NC(=O)c1cn(C)nc1C(F)F (stereo not drawn) [3-difluoromethyl-1-methyl-1H-pyrazole-4-carboxylic acid [2-(2,4-dichlorophenyl)-2-methoxy-1-methyl-ethyl]-amide]		delayed	significantly reduced
